According to US11000033B2, “Ketone or oxime compound, and herbicide” (NISSAN CHEMICAL CORPORATION, priority 2014, dated 2021):

Columns and labels:
Type in all cases: in vivo
Abutilon theophrasti [1] = assay: Test Example 5: herbicidal effect by foliage application, plastic box (symbol M); conditions: 320 g/ha, 3 weeks after application
In short: (§1)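 Herbicide, formulated as an emulsion and diluted in water, is sprayed onto the aerial parts of 14-day seedlings. These were grown at 25° C. to 30° C. in sterilized diluvial soil; effects are graded after 3 weeks.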

Setaria viridis [2] = assay: Test Example 5: herbicidal effect by foliage application, plastic box (symbol G); conditions: 320 g/ha, 3 weeks after application
In short: as §1

Veronica persica = assay: Test Example 4: herbicidal effect by soil treatment (symbol R); conditions: application herbicide amount 320 g/ha
In short: (§2)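 Seeds were sown in sterilized diluvial soil, covered with about 1.5 cm of soil, and the soil surface was sprayed with a water-diluted emulsion of the compound at a predetermined rate. Plants grew in a greenhouse at 25° C. to 30° C.; effects were scored visually 3 weeks after application.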

Abutilon theophrasti [3] = assay: Test Example 4: herbicidal effect by soil treatment (symbol M); conditions: application herbicide amount 320 g/ha
In short: as §2

Galium spurium = assay: Test Example 4: herbicidal effect by soil treatment (symbol Q); conditions: application herbicide amount 320 g/ha
In short: as §2

Chenopodium album = assay: Test Example 4: herbicidal effect by soil treatment (symbol O); conditions: application herbicide amount 320 g/ha
In short: as §2

Digitaria ciliaris = assay: Test Example 4: herbicidal effect by soil treatment (symbol F); conditions: application herbicide amount 320 g/ha
In short: as §2

Apera spica-venti = assay: Test Example 5: herbicidal effect by foliage application, plastic box (symbol L); conditions: 320 g/ha, 3 weeks after application
In short: as §1

Leptochloa chinensis = assay: Test Example 3: herbicidal effect by foliage application, Wagner pot (symbol D); conditions: application herbicide amount 320 g/ha
In short: (§3)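 Plants sown in submerged alluvial soil (water depth 0.1–0.5 cm) in a 25–30 °C greenhouse and grown 14 days. An emulsion of the compound diluted in water to a set herbicide amount was sprayed uniformly on foliage. Effect on each plant scored 3 weeks after application.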

rapeseed = assay: Test Example 5: effect on crop by foliage application, plastic box (symbol g); conditions: 320 g/ha, 3 weeks after application
In short: (§4)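 Crop and weed seeds sown in spots in sterilized diluvial soil in plastic boxes and covered with about 1.5 cm soil. Plants raised in a greenhouse at 25° C. to 30° C. for foliar application.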

Amaranthus retroflexus = assay: Test Example 4: herbicidal effect by soil treatment (symbol N); conditions: application herbicide amount 320 g/ha
In short: as §2

[4] = system: directly sowed rice plant; assay: Test Example 3: effect on crop by foliage application, Wagner pot (symbol b); conditions: application herbicide amount 320 g/ha
In short: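 Greenhouse culture at 25–30 °C of seeded rice, Cyperus difformis, Leptochloa chinensis and Echinochloa crus-galli var. crus-galli, in alluvial soil held under 0.1–0.5 cm of water in a Wagner pot.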

[5] = system: Echinochloa crus-galli var. crus-galli; assay: Test Example 5: herbicidal effect by foliage application, plastic box (symbol H); conditions: 320 g/ha, 3 weeks after application
In short: as §1

Avena fatua = assay: Test Example 5: herbicidal effect by foliage application, plastic box (symbol I); conditions: 320 g/ha, 3 weeks after application
In short: as §1

Stellaria media [6] = assay: Test Example 5: herbicidal effect by foliage application, plastic box (symbol P); conditions: 320 g/ha, 3 weeks after application
In short: as §1

beet = assay: Test Example 5: effect on crop by foliage application, plastic box (symbol f); conditions: 320 g/ha, 3 weeks after application
In short: as §4

transplanted rice plant = assay: Test Example 1: effect on crop, application before weed generation in submerged conditions (symbol a); conditions: application herbicide amount 320 g/ha
In short: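 Rice at 2.5 leaf stage transplanted into submerged soil (4 cm depth) sown with three weed species; herbicide applied before weed emergence.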

Setaria viridis [7] = assay: Test Example 4: herbicidal effect by soil treatment (symbol G); conditions: application herbicide amount 320 g/ha
In short: as §2

rice plant = assay: Test Example 5: effect on crop by foliage application, plastic box (symbol b); conditions: 320 g/ha, 3 weeks after application
In short: as §4

Stellaria media [8] = assay: Test Example 4: herbicidal effect by soil treatment (symbol P); conditions: application herbicide amount 320 g/ha
In short: as §2

[9] = system: Echinochloa crus-galli var. crus-galli; assay: Test Example 3: herbicidal effect by foliage application, Wagner pot (symbol H); conditions: application herbicide amount 320 g/ha
In short: as §3

Lolium multiflorum Lam. = assay: Test Example 4: herbicidal effect by soil treatment (symbol K); conditions: application herbicide amount 320 g/ha
In short: as §2

Row | Structure (SMILES) | M: Abutilon theophrasti, herbicidal effect (criteria of Test Example 1) (Abutilon theophrasti [1]) | G: Setaria viridis, herbicidal effect (criteria of Test Example 1) (Setaria viridis [2]) | L: Apera spica-venti, herbicidal effect (criteria of Test Example 1) (Apera spica-venti) | herbicidal effect on D (Leptochloa chinensis), grade 0-5 (Leptochloa chinensis) | g: rapeseed, effect on crop (criteria of Test Example 1) (rapeseed) | effect on crop b (directly sowed rice plant), grade 0-5 [4] | H: Echinochloa crus-galli var. crus-galli, herbicidal effect (criteria of Test Example 1) [5] | I: Avena fatua, herbicidal effect (criteria of Test Example 1) (Avena fatua) | P: Stellaria media, herbicidal effect (criteria of Test Example 1) (Stellaria media [6]) | f: beet, effect on crop (criteria of Test Example 1) (beet) | Effect grade on crop, a: transplanted rice plant (transplanted rice plant) | b: directly sowed rice plant, effect on crop (criteria of Test Example 1) (rice plant) | herbicidal effect on H (Echinochloa crus-galli var. crus-galli), grade 0-5 [9] | Herbicidal effect grade, R: Veronica persica (Veronica persica) | Herbicidal effect grade, M: Abutilon theophrasti (Abutilon theophrasti [3]) | Herbicidal effect grade, Q: Galium spurium (Galium spurium) | Herbicidal effect grade, O: Chenopodium album (Chenopodium album) | Herbicidal effect grade, F: Digitaria ciliaris (Digitaria ciliaris) | Herbicidal effect grade, N: Amaranthus retroflexus (Amaranthus retroflexus) | Herbicidal effect grade, G: Setaria viridis (Setaria viridis [7]) | other results
1 | CON=C(C)CC1CC(O)=C(c2c(C)cc(-c3ccc(Cl)cc3F)cc2C)C1=O (stereo not drawn) [6-084] | 3 (Herbicidal ratio of 40% or higher and lower than 70%) | 5 (Herbicidal ratio of 90% or more (almost completely withered)) | 5 (Herbicidal ratio of 90% or more (almost completely withered)) | 5 (Herbicidal ratio of 90% or more (almost completely withered)) | 4 (Herbicidal ratio of 70% or higher and lower than 90%) | 5 (Herbicidal ratio of 90% or more (almost completely withered)) | 5 (Herbicidal ratio of 90% or more (almost completely withered)) | 5 (Herbicidal ratio of 90% or more (almost completely withered)) | 3 (Herbicidal ratio of 40% or higher and lower than 70%) | 0 (Herbicidal ratio of 5% or lower (almost no effect)) | 5 (Herbicidal ratio of 90% or more (almost completely withered)) | 5 (Herbicidal ratio of 90% or more (almost completely withered)) | 5 (Herbicidal ratio of 90% or more (almost completely withered)) |  |  |  |  |  |  |  | R: Veronica persica, herbicidal effect grade (Veronica persica): 4 (Herbicidal ratio of 70% or higher and lower than 90%); M: Abutilon theophrasti, herbicidal effect grade (Abutilon theophrasti [3]): 0 (Herbicidal ratio of 5% or lower (almost no effect)); Q: Galium spurium, herbicidal effect grade (Galium spurium): 3 (Herbicidal ratio of 40% or higher and lower than 70%); O: Chenopodium album, herbicidal effect grade (Chenopodium album): 3 (Herbicidal ratio of 40% or higher and lower than 70%); F: Digitaria ciliaris, herbicidal effect grade (Digitaria ciliaris): 5 (Herbicidal ratio of 90% or more (almost completely withered)); N: Amaranthus retroflexus, herbicidal effect grade (Amaranthus retroflexus): 4 (Herbicidal ratio of 70% or higher and lower than 90%); G: Setaria viridis, herbicidal effect grade (Setaria viridis [7]): 5 (Herbicidal ratio of 90% or more (almost completely withered)); P: Stellaria media, herbicidal effect grade (Stellaria media [8]): 3 (Herbicidal ratio of 40% or higher and lower than 70%); K: Lolium multiflorum Lam., herbicidal effect grade (Lolium multiflorum Lam.): 5 (Herbicidal ratio of 90% or more (almost completely withered))
2 | CON=C(C)CC1CC(O)=C(c2c(C)cc(-c3ccc(F)c(Cl)c3)cc2C)C1=O (stereo not drawn) [6-085] | 4 (Herbicidal ratio of 70% or higher and lower than 90%) | 5 (Herbicidal ratio of 90% or more (almost completely withered)) | 5 (Herbicidal ratio of 90% or more (almost completely withered)) | 5 (Herbicidal ratio of 90% or more (almost completely withered)) | 5 (Herbicidal ratio of 90% or more (almost completely withered)) | 5 (Herbicidal ratio of 90% or more (almost completely withered)) | 5 (Herbicidal ratio of 90% or more (almost completely withered)) | 5 (Herbicidal ratio of 90% or more (almost completely withered)) | 3 (Herbicidal ratio of 40% or higher and lower than 70%) | 4 (Herbicidal ratio of 70% or higher and lower than 90%) | 5 (Herbicidal ratio of 90% or more (almost completely withered)) | 5 (Herbicidal ratio of 90% or more (almost completely withered)) | 5 (Herbicidal ratio of 90% or more (almost completely withered)) | 4 (Herbicidal ratio of 70% or higher and lower than 90%) | 4 (Herbicidal ratio of 70% or higher and lower than 90%) | 4 (Herbicidal ratio of 70% or higher and lower than 90%) | 5 (Herbicidal ratio of 90% or more (almost completely withered)) | 5 (Herbicidal ratio of 90% or more (almost completely withered)) | 5 (Herbicidal ratio of 90% or more (almost completely withered)) | 5 (Herbicidal ratio of 90% or more (almost completely withered)) | Herbicidal effect grade, P: Stellaria media (Stellaria media [8]): 5 (Herbicidal ratio of 90% or more (almost completely withered)); Herbicidal effect grade, K: Lolium multiflorum Lam. (Lolium multiflorum Lam.): 5 (Herbicidal ratio of 90% or more (almost completely withered))
3 | CON=C(C)CC1CC(O)=C(c2c(C)cc(-c3cc(Cl)cc(Cl)c3)cc2C)C1=O (stereo not drawn) [6-087] | 0 (Herbicidal ratio of 5% or lower (almost no effect)) | 5 (Herbicidal ratio of 90% or more (almost completely withered)) | 3 (Herbicidal ratio of 40% or higher and lower than 70%) | 5 (Herbicidal ratio of 90% or more (almost completely withered)) | 4 (Herbicidal ratio of 70% or higher and lower than 90%) | 5 (Herbicidal ratio of 90% or more (almost completely withered)) | 5 (Herbicidal ratio of 90% or more (almost completely withered)) | 0 (Herbicidal ratio of 5% or lower (almost no effect)) | 1 (Herbicidal ratio of 5% or higher and lower than 20%) | 0 (Herbicidal ratio of 5% or lower (almost no effect)) | 2 (Herbicidal ratio of 20% or higher and lower than 40%) | 1 (Herbicidal ratio of 5% or higher and lower than 20%) | 5 (Herbicidal ratio of 90% or more (almost completely withered)) | 2 (Herbicidal ratio of 20% or higher and lower than 40%) | 0 (Herbicidal ratio of 5% or lower (almost no effect)) | 0 (Herbicidal ratio of 5% or lower (almost no effect)) | 0 (Herbicidal ratio of 5% or lower (almost no effect)) | 5 (Herbicidal ratio of 90% or more (almost completely withered)) | 0 (Herbicidal ratio of 5% or lower (almost no effect)) | 5 (Herbicidal ratio of 90% or more (almost completely withered)) | Herbicidal effect grade, P: Stellaria media (Stellaria media [8]): 0 (Herbicidal ratio of 5% or lower (almost no effect)); Herbicidal effect grade, K: Lolium multiflorum Lam. (Lolium multiflorum Lam.): 3 (Herbicidal ratio of 40% or higher and lower than 70%)
